Results published in US7344730B1, “Soil granulates with controlled active ingredient release (cr soil granulates)” (BASF SE, priority 1998, dated 2008).
Read-outs that look alike come from different tables or passages of the source.

Legend:
Erysiphe-graminis = test: Field experiments on spring wheat Star: disease level Erysiphe graminis; assay type: in vivo; conditions: soil application in CR granules combined with strobilurin, Table 12 series
Excerpt: Due to the rapid release of active ingredient, the long-term action of this sample was insufficient, so that only a minor effect was discernible in comparison with the untreated sample.
The carriers employed were urea and Rasenfloranid granules.

[1] = Granule elution apparatus: release of active ingredient from CR granules into about 4000 ml water in 24 h; assay type: physicochemical; conditions: for active ingredient detected in the collected liquid: Example 3 granules (PVA+PVP coating), 30 g of granules, 3980 g of water in 24 hours; for Release rate in 24 h at 40° C., 4000 ml: coating percentage 4%
Procedure: The plant serves to determine the delayed release of active ingredients or salts from controlled release (CR) formulations. A frit on which the granules to be tested are placed is located in a cylindrical vessel at the lower edge. Underneath the frit there is an S-shaped drain which causes liquid to drain from the cylinder only when it is 80% full. Water (if appropriate together with wetter) is pumped through the CR formulations in a cylindrical feed container (approx. volume 100 ml) by means of a hose pump in such a way that the feed material is surrounded completely by water. The percolating water is collected in receiving vessels. An automatic switch causes the receiving vessels to be changed in order to determine the release of active ingredients over time. […] Unless elution temperatures are specified, a bath temperature of 30° C. was set.
The elution plant operates 24 hours a day in conjunction with the program control. One elution takes 24 hours, and during this time approx. 4000 ml of fluid are pumped through the feed material and collected in receiving vessels. The active ingredient content in the eluate is determined by means of HPLC or GC. Whether release is uniform can be checked with reference to the feed material. The cumulative value provides a measure for assessing granule permeability.
The release rate of the active ingredients was determined in the above-described elution apparatus. To this end, 30 g of the carrier granules were weighed into a trapped container equipped with a frit. In 24 hours, an amount of 3980 g of water was pumped through the container and collected. 124 mg of fenpropimorph and 19 mg of epoxiconazole were detected in the collected liquid.

[2] = assay type: in vivo, winter wheat; conditions: for epoxiconazole detected per kg of biomass: winter wheat, in vivo
Procedure: This product was applied together with cereal seed (winter wheat). On average, approx. 3 fungicidal active ingredient pellets were deposited subterraneously per seed kernel. Epoxiconazole was detected in the growing cereal plants two and six months after application. Two months after sowing, 0.038 mg were detected per kg of biomass, and six months after application 0.022 mg were still detected per kg of biomass.

With `CC(=O)Oc1ccccc1C(=O)O` [Comp. 7, acetylsalicylic acid] the “activity-enhancing effect in combination (words)” value (Erysiphe-graminis; listed as Compound 7) was “same activity-enhancing effects as Bion®”.
For `CC(=O)Oc1ccccc1C(=O)O` [acetylsalicylic acid], the “activity-enhancing effect in combination (words)” value (Erysiphe-graminis) was “activity-enhancing effects”.
In the case of `CC(Cc1ccc(C(C)(C)C)cc1)CN1C[C@@H](C)O[C@@H](C)C1` (mixture of isomers) [Comp. 1, (±)-cis-4-[3-(4-tert-butylphenyl)-2-methylpropyl]-2,6-dimethyl-morpoline], the “active ingredient detected in the collected liquid” value [1] is reported as 124 mg.
For `Fc1ccc([C@]2(Cn3cncn3)O[C@H]2c2ccccc2Cl)cc1` (racemic) [Comp. 6, (2RS,3SR)-1-[3-(2-chlorophenyl)-2,3-epoxy-2-(4-fluorophenyl)-propyl]-1H-1,2,4-triazole], the “controlled release of the active ingredient in the soil, duration” value ([2]; PVA+PVP coating, Example 3) was “at least 6 months”, the “epoxiconazole detected per kg of biomass” value ([2]; 2 months) was 0.038 mg per kg of biomass and the “epoxiconazole detected per kg of biomass” value ([2]; 6 months) was 0.022 mg per kg of biomass. The “active ingredient detected in the collected liquid” value [1] was 19 mg, the “Release rate in 24 h at 40° C., 4000 ml” value ([1]; filler (starch C-Pur) 0%) was 2.70% and the “Release rate in 24 h at 40° C., 4000 ml” value ([1]; filler (starch C-Pur) 10%) was 3.30%. The “Release rate in 24 h at 40° C., 4000 ml” value ([1]; filler (starch C-Pur) 20%) was 7.15%.
